Key:
MRC5 = test: Antiproliferative activity against human MRC5 cells assessed as reduction in cell viability after 48 hrs by MTT assay; type: cell-based; settings: MRC5, 48 h
MCF7 = test: Antiproliferative activity against human MCF7 cells assessed as reduction in cell viability after 48 hrs by MTT assay; type: functional, cell-based; settings: MCF7, 48 h
MDA-MB-231 = test: Antiproliferative activity against human MDA-MB-231 cells assessed as reduction in cell viability after 48 hrs by MTT assay; type: functional, cell-based; settings: MDA-MB-231, 48 h
Caco-2 = test: Antiproliferative activity against human Caco-2 cells assessed as reduction in cell viability after 48 hrs by MTT assay; type: functional, cell-based; settings: Caco-2, 48 h
PANC-1 [1] = test: Antiproliferative activity against human PANC-1 cells assessed as reduction in cell viability after 48 hrs by MTT assay; type: functional, cell-based; settings: PANC-1, 48 h
PANC-1 [2] = test: Induction of cell cycle arrest in human PANC-1 cells assessed as accumulation of cells at G0/G1 phase at 10 uM incubated for 48 hrs propidium iodide-A staining-based flow cytometric analysis (reference value: 48.58%); type: functional
PANC-1 [3] = test: Induction of apoptosis in human PANC-1 cells assessed as viable cells at 10 uM incubated for 48 hrs by annexin V FITC and propidium iodide staining based flow cytometry analysis (reference value: 99.5%); type: functional; settings: read-out: Activity
PANC-1 [4] = test: Induction of cell cycle arrest in human PANC-1 cells assessed as accumulation of cells at G2/M phase at 5 uM incubated for 48 hrs propidium iodide-A staining-based flow cytometric analysis (reference value: 6.71%); type: functional
PANC-1 [5] = test: Induction of apoptosis in human PANC-1 cells assessed as increase in caspase 9 activity; type: functional, cell-based; settings: dose 5-10 µM
PANC-1 [6] = test: Induction of apoptosis in human PANC-1 cells assessed as necrotic cells at 5 uM incubated for 48 hrs by annexin V FITC and propidium iodide staining based flow cytometry analysis (reference value: 0%); type: functional
PANC-1 [7] = test: Induction of apoptosis in human PANC-1 cells assessed as necrotic cells at 10 uM incubated for 48 hrs by annexin V FITC and propidium iodide staining based flow cytometry analysis (reference value: 0%); type: functional
PANC-1 [8] = test: Induction of cell cycle arrest in human PANC-1 cells assessed as accumulation of cells at S phase at 10 uM incubated for 48 hrs propidium iodide-A staining-based flow cytometric analysis (reference value: 44.71%); type: functional
PANC-1 [9] = test: Induction of apoptosis in human PANC-1 cells assessed as early apoptotic cells at 10 uM incubated for 48 hrs by annexin V FITC and propidium iodide staining based flow cytometry analysis (reference value: 0.2%); type: functional
PANC-1 [10] = test: Induction of cell cycle arrest in human PANC-1 cells assessed as accumulation of cells at G2/M phase at 10 uM incubated for 48 hrs propidium iodide-A staining-based flow cytometric analysis (reference value: 6.71%); type: functional
PANC-1 [11] = test: Induction of apoptosis in human PANC-1 cells assessed as late apoptotic cells at 10 uM incubated for 48 hrs by annexin V FITC and propidium iodide staining based flow cytometry analysis (reference value: 0.1%); type: functional
PANC-1 [12] = test: Induction of apoptosis in human PANC-1 cells assessed as increase in caspase 3 activity; type: functional, cell-based; settings: dose 5-10 µM
PANC-1 [13] = test: Induction of cell cycle arrest in human PANC-1 cells assessed as accumulation of cells at S phase at 5 uM incubated for 48 hrs propidium iodide-A staining-based flow cytometric analysis (reference value: 44.71%); type: functional
PANC-1 [14] = test: Induction of apoptosis in human PANC-1 cells assessed as viable cells at 5 uM incubated for 48 hrs by annexin V FITC and propidium iodide staining based flow cytometry analysis (reference value: 99.5%); type: functional; settings: read-out: Activity
PANC-1 [15] = test: Induction of cell cycle arrest in human PANC-1 cells assessed as accumulation of cells at G0/G1 phase at 5 uM incubated for 48 hrs propidium iodide-A staining-based flow cytometric analysis (reference value: 48.58%); type: functional
PANC-1 [16] = test: Induction of apoptosis in human PANC-1 cells assessed as late apoptotic cells at 5 uM incubated for 48 hrs by annexin V FITC and propidium iodide staining based flow cytometry analysis (reference value: 0.1%); type: functional
PANC-1 [17] = test: Induction of apoptosis in human PANC-1 cells assessed as early apoptotic cells at 5 uM incubated for 48 hrs by annexin V FITC and propidium iodide staining based flow cytometry analysis (reference value: 0.2%); type: functional

Row | Structure (SMILES) | IC50 (MRC5) | IC50 (MCF7) | IC50 (MDA-MB-231) | IC50 (Caco-2) | IC50 (PANC-1 [1]) | further results
1 | COc1ccc(/C=C/c2nnc(-c3[nH]nc4c3Cc3cc(OC)c(OC)cc3-4)o2)cc1 | 89 µM | 10.1 µM | 25 µM | 14.9 µM | 27.3 µM | –
2 | Fc1ccc2c(c1)Cc1c-2n[nH]c1-c1nnc(/C=C/c2ccccc2)o1 | 66 µM | 60.4 µM | 18 µM | 15.9 µM | 21.5 µM | –
3 | COc1cc(/C=C/c2nnc(-c3[nH]nc4c3Cc3cc(F)ccc3-4)o2)cc(OC)c1OC | 61 µM | 44.8 µM | 17.2 µM | 16.1 µM | 15.5 µM | –
4 | COc1cc2c(cc1OC)-c1n[nH]c(-c3nnc(/C=C/c4cc(OC)c(OC)c(OC)c4)o3)c1C2 | 77 µM | 14.4 µM | 13.5 µM | 57.4 µM | 18.4 µM | –
5 | COc1ccc2c(c1)Cc1c-2n[nH]c1-c1nnc(/C=C/c2ccccc2)o1 | 65 µM | 67.6 µM | 12.8 µM | 13.1 µM | 26 µM | –
6 | COc1cc2c(cc1OC)-c1n[nH]c(-c3nnc(/C=C/c4ccccc4)o3)c1C2 | 65 µM | 32.9 µM | 11.5 µM | 15 µM | 30.9 µM | –
7 | COc1ccc(/C=C/c2nnc(-c3[nH]nc4c3Cc3cc(F)ccc3-4)o2)cc1 | 52 µM | 63.8 µM | 37.2 µM | 15.6 µM | 39.9 µM | –
8 | COc1cc(/C=C/c2nnc(-c3[nH]nc4c3Cc3ccccc3-4)o2)cc(OC)c1OC | 55 µM | 37.2 µM | 18.4 µM | 31.7 µM | 24.2 µM | –
9 | COc1ccc(/C=C/c2nnc(-c3[nH]nc4c3Cc3cc(OC)ccc3-4)o2)cc1 | 54 µM | 60.2 µM | 16.6 µM | 10.6 µM | 17.4 µM | –
10 | O=[N+]([O-])c1ccc(/C=C/c2nnc(-c3[nH]nc4c3Cc3cc(F)ccc3-4)o2)cc1 | 89 µM | – | 21.9 µM | > 100 µM | 16.8 µM | –
11 | COc1ccc(/C=C/c2nnc(-c3[nH]nc4c3Cc3ccccc3-4)o2)cc1 | 38 µM | 17.1 µM | 13.5 µM | 39.7 µM | 20.6 µM | –
12 | COc1cc2c(cc1OC)-c1n[nH]c(-c3nnc(/C=C/c4ccc([N+](=O)[O-])cc4)o3)c1C2 | 49 µM | 20.2 µM | 16.3 µM | 20 µM | 4.3 µM | Activity (PANC-1 [2]): 24.94%; viability at 10 µM (PANC-1 [3]): 52.2%; Activity (PANC-1 [4]): 4.26%; Activity (PANC-1 [5]): Dose-Dependent Effect; Activity (PANC-1 [6]): 1.2%; Activity (PANC-1 [7]): 10.3%; Activity (PANC-1 [8]): 73.06%; Activity (PANC-1 [9]): 2.5%; Activity (PANC-1 [10]): 2%; Activity (PANC-1 [11]): 31.2%; Activity (PANC-1 [12]): Dose-Dependent Effect; Activity (PANC-1 [13]): 53.38%; viability at 5 µM (PANC-1 [14]): 64.1%; Activity (PANC-1 [15]): 42.09%; Activity (PANC-1 [16]): 27.5%
13 | COc1ccc(/C=C/c2nnc(-c3[nH]nc4c3Cc3cc(F)ccc3-4)o2)cc1OC | 58 µM | 18.1 µM | 17.6 µM | 18.7 µM | 23 µM | –
14 | Nc1ccn([C@@H]2O[C@H](CO)[C@@H](O)C2(F)F)c(=O)n1 [GEMCITABINE] | 80 µM | 6.1 µM | 8 µM | 9.4 µM | 4.2 µM | –
15 | C(=C\c1nnc(-c2[nH]nc3c2Cc2ccccc2-3)o1)/c1ccccc1 | 45 µM | 22.7 µM | 18.7 µM | 14.8 µM | > 50 µM | –
16 | O=[N+]([O-])c1ccc(/C=C/c2nnc(-c3[nH]nc4c3Cc3ccccc3-4)o2)cc1 | 66 µM | 41.9 µM | 18.5 µM | 17.7 µM | 18.3 µM | –
17 | COc1ccc(/C=C/c2nnc(-c3[nH]nc4c3Cc3ccccc3-4)o2)cc1OC | 63 µM | 56.2 µM | 26 µM | 22.8 µM | 36.4 µM | –
18 | COc1ccc(/C=C/c2nnc(-c3[nH]nc4c3Cc3cc(OC)c(OC)cc3-4)o2)cc1OC | 63 µM | 14.5 µM | 23.2 µM | 22.7 µM | > 100 µM | –
19 | COc1ccc2c(c1)Cc1c-2n[nH]c1-c1nnc(/C=C/c2ccc([N+](=O)[O-])cc2)o1 | 41 µM | 20.6 µM | 21.3 µM | 57.1 µM | 7.4 µM | Activity (PANC-1 [2]): 32.78%; viability at 10 µM (PANC-1 [3]): 60.3%; Activity (PANC-1 [4]): 17.85%; Activity (PANC-1 [5]): Dose-Dependent Effect; Activity (PANC-1 [6]): 4.6%; Activity (PANC-1 [7]): 7.5%; Activity (PANC-1 [8]): 59.87%; Activity (PANC-1 [9]): 5.5%; Activity (PANC-1 [10]): 7.35%; Activity (PANC-1 [11]): 27.2%; Activity (PANC-1 [12]): Dose-Dependent Effect; Activity (PANC-1 [13]): 46.6%; Activity (PANC-1 [17]): 1.9%; viability at 5 µM (PANC-1 [14]): 76.7%; Activity (PANC-1 [15]): 36.55%; Activity (PANC-1 [16]): 16.5%
